# Test system: B16 melanoma
# Format: in vivo, C57B/6 mice
sequence,measurement,setting,value
SIINFEKL (Synthetically generated peptide),tumor growth (tumor size),"peptide alone, 0.5 μg in 30 μl PBS into established palpable tumor, once or twice 2 days apart, no adjuvant",significant inhibition of a rapidly growing tumor
same,"tumor size and survival, peptide combined with PD-L1 blockade",peptide twice intratumorally over 48 h plus three i.v. injections of anti-PDL1,synergizes with PD-L1 blockade

# Reference: patent US12370256B2, “Activation of resident memory T cells for the treatment of cancer” (Regents of the University of Minnesota, priority 2017, dated 2025)
